The source of these data is patent publication US12415770B2, “Modulators of liver receptor homologue 1 (LRH-1) and uses” (Emory University, priority 2017, dated 2025).

For experiment [1], the target named is T1, LRH-1 LBD (Homo sapiens, UniProt O00482).
T1 construct: LRH-1 LBD (residues 299-541) in the pMSC7 vector was expressed in BL21 (DE3) pLysS E. coli; made in house; host or cells: E. coli BL21 (DE3) pLysS
Briefly: Thermofluor (DSF) assay, purified LRH-1 LBD-His protein. Type of experiment: binding. The following applies: for ΔTm at 50 µM: read-out: ΔTm (mean +/− SEM) (° C.). The procedure: Thermofluor assays—Purified LRH-1 LBD-His protein (0.2 mg/ml) was incubated overnight with 50 μM of each compound at 4° C. The final DMSO concentration in the reactions was 1%. SYPRO orange dye (Invitrogen) was then added at a 1:1000 dilution. Reactions were heated at a rate of 0.5° C. per minute, using a StepOne Plus Real Time PCR System (ThermoFisher). […] Data were analyzed by first subtracting baseline fluorescence (ligands+SYPRO with no protein) and then fitting the curves using the Bolzman equation (GraphPad Prism, v6) to determine the Tm. […]
A general note: Differential scanning fluorimetry follows unfolding on heating by fluorescence.

In experiment [2] the target is T2, LRH-1 (Homo sapiens, UniProt O00482).
T2 construct: The transfected plasmids included full-length LRH-1 in a pCI vector; expressed in transfected cells; host or cells: HeLa
Kind of experiment: Luciferase reporter assay (SHP-luc) in HeLa cells transfected with full-length LRH-1. In kind it is cell-based. The following applies: for EC50 / EC50 (μM): HeLa cells, SHP-luc reporter, 24 hours, 0.03-30 μM; for Relative Efficacy: fold increase over baseline (DMSO-treated cells) relative to the fold increase induced by RJW100. The procedure: EC50 and Relative Activity values were calculated from luciferase reporter assays.
(Reporter assays use an easily measured gene product as a stand-in for the process of interest.)

[3] abbreviates: 50 μM compound, relative to DLPC-bound LRH-1.

Each structure is given as a SMILES string. Where two headings read alike, the source gives them in different places. Bounds are passed on as bounds.

T2 sequence (O00482 whole entry): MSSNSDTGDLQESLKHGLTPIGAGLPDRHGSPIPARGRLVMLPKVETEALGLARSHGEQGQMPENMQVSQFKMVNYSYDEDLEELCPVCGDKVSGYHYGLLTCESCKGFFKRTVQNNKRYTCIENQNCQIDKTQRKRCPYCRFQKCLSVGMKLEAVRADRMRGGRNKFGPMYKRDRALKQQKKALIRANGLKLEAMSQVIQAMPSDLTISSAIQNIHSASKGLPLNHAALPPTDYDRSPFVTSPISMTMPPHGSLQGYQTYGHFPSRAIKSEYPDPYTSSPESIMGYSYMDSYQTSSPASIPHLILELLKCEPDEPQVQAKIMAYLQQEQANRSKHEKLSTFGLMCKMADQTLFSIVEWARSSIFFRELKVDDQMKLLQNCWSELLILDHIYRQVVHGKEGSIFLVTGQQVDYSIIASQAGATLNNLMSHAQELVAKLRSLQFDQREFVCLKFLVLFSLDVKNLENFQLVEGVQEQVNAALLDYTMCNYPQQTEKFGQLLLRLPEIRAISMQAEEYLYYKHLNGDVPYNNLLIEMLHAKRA
T1 sequence (O00482 299-541): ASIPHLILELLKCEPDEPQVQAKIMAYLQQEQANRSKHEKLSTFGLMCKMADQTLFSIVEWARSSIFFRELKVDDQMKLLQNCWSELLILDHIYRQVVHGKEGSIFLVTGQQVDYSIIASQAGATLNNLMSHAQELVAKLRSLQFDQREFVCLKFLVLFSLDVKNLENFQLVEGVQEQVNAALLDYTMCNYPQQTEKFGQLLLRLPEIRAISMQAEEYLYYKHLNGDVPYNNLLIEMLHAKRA

As for `C=C(c1ccc(O)cc1)[C@@]12CC[C@@H](O)C1CC(CCCCCC)=C2c1ccccc1` (mixture of isomers) [Compound 23b, (Exo)-5-hexyl-3a-(1-(4-hydroxyphenyl)vinyl)-4-phenyl-1,2,3,3a,6,6a-hexahydropentalen-1-ol], the ΔTm at 50 µM in experiment [1] (setting [3]) was less than 1 °C. In experiment [2], the EC50 (as a rule, the concentration at which the effect is half-maximal) was 5 µM and the “Relative Efficacy” value is 0.86.
Turning to `C=C(c1ccccc1)[C@@]12CC[C@H](OC(N)=O)C1CC(CCCCCC)=C2c1ccccc1` (stereo partly drawn) [Compound 29-endo, (Endo or Exo)-5-hexyl-4-phenyl-3a-(1-phenylvinyl)-1,2,3,3a,6,6a-hexahydropentalen-1-yl carbamate], the ΔTm at 50 µM in experiment [1] (setting [3]) stood at 2.8 °C. In experiment [2], the “EC50 (μM)” value is recorded as “cnc” and the “Relative Efficacy” value was determined as 0.
On to `C=C(c1ccccc1)[C@@]12CC[C@@H](O)C1CC(CCCCCC)=C2c1cc(N)ccc1F` (mixture of isomers) [Compound 16g, (Exo)-4-(5-amino-2-fluorophenyl)-5-hexyl-3a-(1-phenylvinyl)-1,2,3,3a,6,6a-hexahydropentalen-1-ol], for which the ΔTm at 50 µM in experiment [1] (setting [3]) was less than 1 °C. In experiment [2], a half-maximal effect (EC50) was put at 24 µM and the “Relative Efficacy” value is 3.8.
The matching figures for `C=C(c1ccccc1)[C@@]12CC[C@@H](O)[C@@H]1CC(CCCCCCCCCOP(=O)([O-])OCC[N+](C)(C)C)=C2c1ccccc1` (relative stereo) [Compound 10g, 9-(6-exo-hydroxy-3-phenyl-3a-(1-phenylvinyl)-1,3a,4,5,6,6a-hexahydropentalen-2-yl)nonyl (2-(trimethylammonio)ethyl) phosphate]: less than 1 °C, 2 µM and 2.74.
In the same order, the values of `C=C(c1ccccc1)[C@@]12CC[C@@H](O)[C@@H]1CC(CCCCO)=C2c1ccccc1` (relative stereo) [Compound 5e, Exo-5-(4-hydroxybutyl)-4-phenyl-3a-(1-phenylvinyl)-1,2,3,3a,6,6a-hexahydropentalen-1-ol] are 3.1 °C, 1.4 µM and 0.83.
With `C=C(c1ccccc1)[C@@]12CC[C@@H](O)C1CC(CCCCCC)=C2c1cc(O)ccc1F` (mixture of isomers) [Compound 16f, (Exo)-4-(2-fluoro-5-hydroxyphenyl)-5-hexyl-3a-(1-phenylvinyl)-1,2,3,3a,6,6a-hexahydropentalen-1-ol], the ΔTm at 50 µM in experiment [1] (setting [3]) was less than 1 °C. In experiment [2], the EC50 was more than 30 µM and the “Relative Efficacy” value was 0.9.
Take `C=C(c1ccccc1)[C@@]12CC[C@@H](O)C1CC(CCCCCC)=C2c1cc(N)ccc1C` (mixture of isomers) [Compound 17g, (Exo)-4-(5-amino-2-methylphenyl)-5-hexyl-3a-(1-phenylvinyl)-1,2,3,3a,6,6a-hexahydropentalen-1-ol]: in experiment [1] (setting [3]), the ΔTm at 50 µM is less than 1 °C. Also, in experiment [2], the EC50 was more than 30 µM and the “Relative Efficacy” value was determined as 2.7.
As for `C=C(c1ccccc1)C12CC[C@@H](O)C1CC(CCCCCC)=C2c1cccc(O)c1` (mixture of isomers) [Compound 15f, (Exo)-5-hexyl-4-(3-hydroxyphenyl)-3a-(1-phenylvinyl)-1,2,3,3a,6,6a-hexahydropentalen-1-ol], the ΔTm at 50 µM in experiment [1] (setting [3]) worked out at 1.4 °C. Moreover, in experiment [2], the “EC50 (μM)” value was “cnc” and the “Relative Efficacy” value worked out at 0.85.
In the same order, the values of `C=C(c1ccccc1)[C@@]12CC[C@@H](O)C1CC(CCCCCC)=C2c1cccc(N)c1` (mixture of isomers) [Compound 15g, (Exo)-4-(3-aminophenyl)-5-hexyl-3a-(1-phenylvinyl)-1,2,3,3a,6,6a-hexahydropentalen-1-ol] are less than 1 °C, “cnc” and 0.70.
Consider `C=C(c1ccccc1)[C@@]12CCC(O)C1CC(CCCCCCCCOP(=O)(OCC)OCC)=C2c1ccccc1` (stereo partly drawn) [Compound 53-exo, (Endo or Exo) diethyl (8-(6-hydroxy-3-phenyl-3a-(1-phenylvinyl)-1,3a,4,5,6,6a-hexahydropentalen-2-yl)octyl)phosphate], for which the “ΔTm (mean +/− SEM) (° C.)” value in experiment [1] (setting [3]) is “ns (Ns = Tm changes were less than 1° C.)”. Besides, in experiment [2], the “Relative Efficacy” value is on record as 0.37.
As to `C=C(c1ccccc1)[C@@]12CCC(O)C1CC(CCCCCCCCOP(=O)(OCC)OCC)=C2c1ccccc1` (stereo partly drawn) [Compound 53-endo, (Endo or Exo) diethyl (8-(6-hydroxy-3-phenyl-3a-(1-phenylvinyl)-1,3a,4,5,6,6a-hexahydropentalen-2-yl)octyl)phosphate], in experiment [1], the ΔTm at 50 µM was less than 1 °C. Besides, the “Relative Efficacy” value in experiment [2] stood at 1.04.
As to `C=C(c1ccccc1)[C@@]12CC[C@@H](O)[C@@H]1CC(CCCCCCCCO)=C2c1ccccc1` (relative stereo) [Compound 9e, Exo-5-(8-hydroxyoctyl)-4-phenyl-3a-(1-phenylvinyl)-1,2,3,3a,6,6a-hexahydropentalen-1-ol], in experiment [1] (setting [3]), the ΔTm at 50 µM is 4 °C. In addition, in experiment [2], the EC50 amounted to 0.7 µM and the “Relative Efficacy” value worked out at 1.52.
For `C=C(c1ccccc1)C12CCC(O)C1CC(CCCCCCCOP(=O)([O-])OCC[N+](C)(C)C)=C2c1ccccc1` (stereo not drawn) [Compound 8g, 7-(6-exo-hydroxy-3-phenyl-3a-(1-phenylvinyl)-1,3a,4,5,6,6a-hexahydropentalen-2-yl)heptyl (2-(trimethylammonio)ethyl) phosphate], in experiment [1] (setting [3]), the ΔTm at 50 µM came out at 2.9 °C. Further, in experiment [2], the “EC50 (μM)” value is given as “cnc” and the “Relative Efficacy” value is listed as 0.81.
As to `C=C(c1ccccc1)[C@@]12CC[C@@H](O)[C@@H]1CC(CCCCCCCCCCOP(=O)([O-])OCC[N+](C)(C)C)=C2c1ccccc1` (relative stereo) [Compound 11g, 10-(6-exo-hydroxy-3-phenyl-3 a-(1-phenylvinyl)-1,3a,4,5,6,6a-hexahydropentalen-2-yl)decyl (2-(trimethylammonio)ethyl) phosphate], the ΔTm at 50 µM in experiment [1] (setting [3]) is -2.4 °C. For the same compound, in experiment [2], it took 5 µM to reach a half-maximal effect (EC50) and the “Relative Efficacy” value worked out at 2.48.
For the compound `C=C(c1ccccc1)[C@@]12CC[C@@H](O)[C@@H]1CC(CCCCCCC(=O)O)=C2c1ccccc1` (relative stereo) [Compound 8f, 7-(6-exo-hydroxy-3-phenyl-3a-(1-phenylvinyl)-1,3a,4,5,6,6a-hexahydropentalen-2-yl)heptanoic acid], the ΔTm at 50 µM in experiment [1] (setting [3]) is 3.7 °C. Further, in experiment [2], the midpoint of the response, the EC50, lay at 4 µM and the “Relative Efficacy” value is listed as 1.17.
For `C=C(c1ccccc1)[C@@]12CC[C@@H](O)C1CC(CCCCCC)=C2c1cc(N)cc(F)c1` (mixture of isomers) [Compound 18g, (Exo)-4-(3-amino-5-fluorophenyl)-5-hexyl-3a-(1-phenylvinyl)-1,2,3,3a,6,6a-hexahydropentalen-1-ol], the ΔTm at 50 µM in experiment [1] (setting [3]) came out at 1.5 °C. Further, in experiment [2], the “EC50 (μM)” value was “cnc” and the “Relative Efficacy” value amounted to 0.99.
For `C=C(c1ccccc1)[C@@]12CC[C@@H](OC(N)=O)C1CC(CCCCCC)=C2c1ccccc1` (stereo partly drawn) [Compound 29-exo, (Endo or Exo)-5-hexyl-4-phenyl-3a-(1-phenylvinyl)-1,2,3,3a,6,6a-hexahydropentalen-1-yl carbamate], the ΔTm at 50 µM in experiment [1] (setting [3]) turned out to be 1.54 °C. Besides, in experiment [2], the “EC50 (μM)” value was “cnc” and the “Relative Efficacy” value turned out to be 0.14.
Turning to `C=C(c1ccccc1)[C@@]12CC[C@@H](O)[C@@H]1CC(CCCCCCCO)=C2c1ccccc1` (relative stereo) [Compound 8e, Exo-5-(7-hydroxyheptyl)-4-phenyl-3a-(1-phenylvinyl)-1,2,3,3a,6,6a-hexahydropentalen-1-ol], the ΔTm at 50 µM in experiment [1] (setting [3]) turned out to be 3.7 °C. For the same compound, in experiment [2], the EC50 amounted to 0.2 µM and the “Relative Efficacy” value is given as 1.26.
On to `C=C(c1ccccc1)[C@@]12CC[C@@H](O)C1CC(CCCCCCCCOC(C)=O)=C2c1ccccc1` (stereo partly drawn) [Compound 47-endo, (Exo or Endo) 8-(6-hydroxy-3-phenyl-3a-(1-phenylvinyl)-1,3a,4,5,6,6a-hexahydropentalen-2-yl)octyl acetate], for which the “ΔTm (mean +/− SEM) (° C.)” value in experiment [1] (50 μM compound, relative to DLPC-bound LRH-1, 50 µM) is given as “ns (Ns = Tm changes were less than 1° C.)”. Also, the “Relative Efficacy” value in experiment [2] worked out at 1.48.
Take `C=C(c1ccccc1)[C@@]12CC[C@@H](O)[C@@H]1CC(CCCCCCCCCCC(=O)O)=C2c1ccccc1` (relative stereo) [Compound 12f, 11-(6-exo-hydroxy-3-phenyl-3a-(1-phenylvinyl)-1,3a,4,5,6,6a-hexahydropentalen-2-yl)undecanoic acid]: in experiment [1] (setting [3]), the ΔTm at 50 µM stood at 2.5 °C. Further, in experiment [2], the EC50 came to 0.3 µM and the “Relative Efficacy” value is listed as 1.74.
As for `C=C(c1ccccc1)C12CCC(O)C1CC(CCCCCOP(=O)([O-])OCC[N+](C)(C)C)=C2c1ccccc1` (stereo not drawn) [Compound 6g, 5-(6-exo-hydroxy-3-phenyl-3a-(1-phenylvinyl)-1,3a,4,5,6,6a-hexahydropentalen-2-yl)pentyl (2-(trimethylammonio)ethyl) phosphate], the ΔTm at 50 µM in experiment [1] (setting [3]) was less than 1 °C. Also, in experiment [2], the “EC50 (μM)” value is recorded as “cnc” and the “Relative Efficacy” value is 0.00.
The matching figures for `C=C(c1ccccc1)C12CCC(O)C1CC(CCCCC(=O)O)=C2c1ccccc1` (stereo not drawn) [Compound 6f, 5-(6-exo-hydroxy-3-phenyl-3a-(1-phenylvinyl)-1,3a,4,5,6,6a-hexahydropentalen-2-yl)pentanoic acid]: 1.3 °C, “cnc” and 0.60.
